Measurements reported in patent US20140051679A1, “KINASE INHIBITORS AND METHOD OF TREATING CANCER WITH SAME” (UNIVERISTY HEALTH NETWORKS, priority 2011, published 2014).

Legend:
[1] = system: MDA-MB-468 breast cancer cells; test: Cell growth inhibition, Sulforhodamine B assay, MDA-MB-468; format: cell-based; conditions: Homo sapiens, 120 h, 5 days culture, SRB assay, read-out: Cell Line GI50 Range MDA-MB-468
human PLK4 = target: T1, human PLK4 (Homo sapiens, UniProt O00444); test: PLK4 inhibition assay (indirect ELISA); format: biochemical; conditions: GST-PLK4 4 nM, 15 μM ATP; read-out: IC50 Ranges PLK4
T1 construct: amino terminal GST fusion of residues 1-391 of human PLK4; made in house; host or cells: E. coli
T1 sequence (O00444 1-391): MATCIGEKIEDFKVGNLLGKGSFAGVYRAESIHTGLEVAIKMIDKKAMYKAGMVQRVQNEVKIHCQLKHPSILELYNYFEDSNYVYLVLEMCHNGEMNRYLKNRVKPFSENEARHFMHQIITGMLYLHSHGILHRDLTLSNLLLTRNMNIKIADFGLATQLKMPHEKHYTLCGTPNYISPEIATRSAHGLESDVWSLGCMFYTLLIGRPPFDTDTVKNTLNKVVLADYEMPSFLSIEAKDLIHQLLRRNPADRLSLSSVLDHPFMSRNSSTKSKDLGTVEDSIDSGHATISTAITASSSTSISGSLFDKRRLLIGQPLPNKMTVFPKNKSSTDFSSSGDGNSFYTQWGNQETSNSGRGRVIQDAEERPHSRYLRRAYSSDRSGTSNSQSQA
Summary of the method: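 Dephosphorylated GST-tagged human PLK4 (residues 1-391, E. coli), 4 nM, preincubated 15 min with compound, then reacted 30 min with 15 μM ATP on MBP-coated plates (50 mM HEPES pH 7.5, 10 mM MgCl2, 0.01% Brij 35). Phospho-MBP detected by antibody ELISA at 450 nm. Tested at 10 μM or 10-point titrations; IC50 from 4-parameter logistic fit.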

HT29 colon cancer cells = test: Cell growth inhibition, Sulforhodamine B assay, HT29; format: cell-based; conditions: Homo sapiens, HT-29, 120 h, 5 days culture, SRB assay, read-out: Cell Line GI50 Range HT29
[2] = system: Colon tumor initiating cells (TICs), 12 colon; test: Colon tumor-initiating cell growth inhibition (Alamar Blue); format: cell-based; conditions: 216 h, 9 days, read-out: GI50 range 12 colon
[3] = system: OVCAR-3 ovarian cancer cells; test: Cell growth inhibition, Sulforhodamine B assay, OVCAR-3; format: cell-based; conditions: Homo sapiens, 120 h, 5 days culture, SRB assay, read-out: Cell Line GI50 Range OVCAR-3
[4] = system: Ovarian TICs, 2393A ovarian; test: Ovarian tumor-initiating cell growth inhibition (Alamar Blue); format: cell-based; conditions: 144 h, 6 days, read-out: GI50 range 2393A ovarian
human TTK = target: T2, human TTK (Homo sapiens, UniProt P33981); test: TTK inhibition assay (indirect ELISA); format: biochemical; conditions: GST-TTK 0.68 nM, 16 μM ATP; read-out: IC50 Ranges TTK
T2 construct: amino terminal GST fusion of full length human TTK; purchased Invitrogen
T2 sequence (P33981 1-857): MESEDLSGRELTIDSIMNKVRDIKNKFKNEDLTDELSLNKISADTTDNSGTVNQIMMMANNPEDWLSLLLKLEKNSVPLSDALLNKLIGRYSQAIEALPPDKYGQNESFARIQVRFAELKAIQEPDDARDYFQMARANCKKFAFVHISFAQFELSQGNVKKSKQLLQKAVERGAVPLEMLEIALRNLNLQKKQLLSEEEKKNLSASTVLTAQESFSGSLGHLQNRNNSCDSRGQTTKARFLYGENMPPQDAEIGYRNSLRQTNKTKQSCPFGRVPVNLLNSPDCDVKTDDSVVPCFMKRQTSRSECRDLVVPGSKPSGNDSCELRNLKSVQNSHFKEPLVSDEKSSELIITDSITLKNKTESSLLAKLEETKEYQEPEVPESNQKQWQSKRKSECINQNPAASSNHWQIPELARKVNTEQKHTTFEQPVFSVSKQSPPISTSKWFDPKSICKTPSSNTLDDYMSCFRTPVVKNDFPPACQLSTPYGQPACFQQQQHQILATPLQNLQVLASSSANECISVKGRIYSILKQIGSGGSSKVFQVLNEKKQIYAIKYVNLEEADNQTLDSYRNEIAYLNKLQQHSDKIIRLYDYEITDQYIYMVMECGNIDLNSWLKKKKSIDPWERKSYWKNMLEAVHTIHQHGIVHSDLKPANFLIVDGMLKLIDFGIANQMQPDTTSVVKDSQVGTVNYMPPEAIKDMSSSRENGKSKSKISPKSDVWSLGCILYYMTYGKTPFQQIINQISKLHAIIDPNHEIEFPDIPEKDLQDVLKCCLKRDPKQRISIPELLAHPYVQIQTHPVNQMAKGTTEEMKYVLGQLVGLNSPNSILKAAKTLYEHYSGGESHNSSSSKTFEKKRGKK

[5] = system: MDA-MB-231 breast cancer cells; test: Cell growth inhibition, Sulforhodamine B assay, MDA-MB-231; format: cell-based; conditions: Homo sapiens, 120 h, 5 days culture, SRB assay, read-out: Cell Line GI50 Range MDA-MB-231
[6] = system: HCT116 colon cancer cells; test: Cell growth inhibition, Sulforhodamine B assay, HCT116; format: cell-based; conditions: Homo sapiens, HCT-116, 120 h, 5 days culture, SRB assay, read-out: Cell Line GI50 Range HCT116
Aurora B = target: T3, Aurora B (Homo sapiens, UniProt Q96GD4); test: Aurora B inhibition assay (Z-Lyte); format: biochemical; conditions: 28 nM Aurora B, 128 μM ATP; read-out: IC50 Ranges Aurora B
T3 construct: purchased Invitrogen PV3970
Experimental: Aurora B inhibition was determined using the Z-Lyte assay kit from Invitrogen. The assay was performed using the recommended manufacturer's instructions with 128 μM ATP and 28 nM Aurora B (Invitrogen cat #PV3970). The % inhibition values were determined according to the manufacturer's directions and IC50 values were obtained using a non-linear 4 point logistic curve fit (XLfit4, IDBS)

[7] = system: PA-1 ovarian cancer cells; test: Cell growth inhibition, Sulforhodamine B assay, PA-1; format: cell-based; conditions: 120 h, 5 days culture, SRB assay, read-out: Cell Line GI50 Range PA-1

T3 sequence (Q96GD4 whole entry): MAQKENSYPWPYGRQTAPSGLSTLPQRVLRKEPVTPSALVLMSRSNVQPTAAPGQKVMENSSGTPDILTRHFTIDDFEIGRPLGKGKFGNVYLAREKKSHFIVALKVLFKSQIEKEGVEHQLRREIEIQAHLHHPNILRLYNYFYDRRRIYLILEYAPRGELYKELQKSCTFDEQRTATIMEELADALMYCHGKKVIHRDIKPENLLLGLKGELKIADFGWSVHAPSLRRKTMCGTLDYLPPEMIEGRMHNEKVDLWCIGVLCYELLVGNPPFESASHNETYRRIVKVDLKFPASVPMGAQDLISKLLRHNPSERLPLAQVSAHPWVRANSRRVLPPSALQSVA

GI50 [1] | IC50 (human PLK4) | GI50 (HT29 colon cancer cells) | GI50 [2] | GI50 [3] | GI50 [4] | IC50 (human TTK) | GI50 [5] | GI50 [6] | IC50 (Aurora B) | GI50 [7] | Structure (SMILES)
≤ 5 µM | ≤ 5 µM | ≤ 5 µM | ≤ 5 µM | ≤ 5 µM | ≤ 5 µM | ≤ 5 µM | ≤ 5 µM | ≤ 5 µM | ≤ 5 µM | ≤ 5 µM | CC[C@@H](NC(=O)c1ccc2[nH]nc(-c3ccc(OC4CCN(C)CC4)cc3)c2c1)c1cccc(OC)c1 [Example A174, (R)—N-(1-(3-methoxyphenyl)propyl)-3-(4-((1-methylpiperidin-4-yl)oxy)phenyl)-1H-indazole-5-carboxamide]
≤ 5 µM | ≤ 5 µM | ≤ 5 µM | ≤ 5 µM | ≤ 5 µM | ≤ 5 µM | ≤ 5 µM | ≤ 5 µM | ≤ 5 µM | ≤ 5 µM | ≤ 5 µM | COCCN1CCC(Oc2ccc(-c3n[nH]c4ccc(C(=O)N[C@H](c5ccsc5)C5CC5)cc34)cc2)CC1 [Example A154]
≤ 5 µM | ≤ 5 µM | ≤ 5 µM | ≤ 5 µM | ≤ 5 µM | ≤ 5 µM | ≤ 5 µM | ≤ 5 µM | ≤ 5 µM | ≤ 5 µM | ≤ 5 µM | CC[C@@H](NC(=O)c1ccc2[nH]nc(-c3ccc(OC4CCN(CCOC)CC4)cc3)c2c1)c1ccccc1Cl [Example A128, (R)—N-(1-(2-chlorophenyl)propyl)-3-(4-((1-(2-methoxyethyl)piperidin-4-yl)oxy)phenyl)-1H-indazole-5-carboxamide]
≤ 5 µM | ≤ 5 µM | ≤ 5 µM | ≤ 5 µM | ≤ 5 µM | ≤ 5 µM | ≤ 5 µM | ≤ 5 µM | ≤ 5 µM | ≤ 5 µM | ≤ 5 µM | COc1ccccc1C(NC(=O)c1ccc2[nH]nc(-c3ccc(OC4CCN(C)CC4)cc3)c2c1)C1CC1 (stereo not shown) [Example A151, N-(cyclopropyl(2-methoxyphenyl)methyl)-3-(4-((1-methylpiperidin-4-yl)oxy)phenyl)-1H-indazole-5-carboxamide]
≤ 5 µM | ≤ 5 µM | ≤ 5 µM | ≤ 5 µM | ≤ 5 µM | ≤ 5 µM | ≤ 5 µM | ≤ 5 µM | ≤ 5 µM | ≤ 5 µM | ≤ 5 µM | CN1CCC(Oc2ccc(-c3n[nH]c4ccc(C(=O)N[C@H](CCO)c5ccccc5)cc34)cc2)CC1 [Example A137, (R)—N-(3-hydroxy-1-phenylpropyl)-3-(4-((1-methylpiperidin-4-yl)oxy)phenyl)-1H-indazole-5-carboxamide]
